Source: patent US20260262643A1, “HERBICIDAL BENZOXAZINES” (FMC CORPORATION, priority 2022, published 2026)

Columns and labels:
ducksalad = experiment: Test D flooded paddy test; assay type: in vivo, Heteranthera limosa; conditions: 250 g ai/ha, applied to paddy water, visual rating after 13 to 14 days, scale 0 to 100 (0 no effect, 100 complete control)
Summary of the method: (§1)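 Visual ratings from 0, meaning no effect, to 100, meaning complete control, were assigned against untreated controls 13 to 14 days after compounds were added to the floodwater of pots kept 3 cm deep, with plants at the 2-leaf stage.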

ryegrass, Italian [1] = experiment: Test C postemergence; assay type: in vivo, Lolium multiflorum; conditions: 10 days, 0 to 100 scale (0 no effect, 100 complete control)
Summary of the method: (§2)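 Visual injury score, 0–100 (100 = complete control), taken 10 days after treatment relative to untreated controls. Pre: directed spray onto soil over sown seeds. Post: foliar spray at one- to two-leaf stage, 2–10 cm. Solvent/surfactant formulation; loam–sand soil; greenhouse.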

barnyardgrass [2] = experiment: Test C preemergence; assay type: in vivo, Echinochloa crusgalli
Summary of the method: as §2

blackgrass [3] = experiment: Test C preemergence; assay type: in vivo, Alopecurus myosuroides
Summary of the method: as §2

galium = experiment: Test C postemergence; assay type: in vivo, Galium aparine; conditions: 10 days, 0 to 100 scale (0 no effect, 100 complete control)
Summary of the method: as §2

soybean [4] = experiment: Test C postemergence; assay type: in vivo, Glycine max; conditions: 10 days, 0 to 100 scale (0 no effect, 100 complete control)
Summary of the method: as §2

ragweed [5] = experiment: Test C preemergence; assay type: in vivo, Ambrosia artemisiifolia
Summary of the method: as §2

pigweed, palmer [6] = experiment: Test C postemergence; assay type: in vivo, Amaranthus palmeri; conditions: 10 days, 0 to 100 scale (0 no effect, 100 complete control)
Summary of the method: as §2

rice = experiment: Test D flooded paddy test; assay type: in vivo, Oryza sativa; conditions: 250 g ai/ha, applied to paddy water, visual rating after 13 to 14 days, scale 0 to 100 (0 no effect, 100 complete control)
Summary of the method: as §1

barnyardgrass [7] = experiment: Test C postemergence; assay type: in vivo, Echinochloa crusgalli; conditions: 10 days, 0 to 100 scale (0 no effect, 100 complete control)
Summary of the method: as §2

wheat [8] = experiment: Test C preemergence; assay type: in vivo, Triticum aestivum
Summary of the method: as §2

corn [9] = experiment: Test C preemergence; assay type: in vivo, Zea mays; conditions: 500 g ai/ha, preemergence; 0 to 100 scale (0 no effect, 100 complete control)
Summary of the method: as §2

kochia [10] = experiment: Test C preemergence; assay type: in vivo, Bassia scoparia
Summary of the method: as §2

ryegrass, Italian [11] = experiment: Test C preemergence; assay type: in vivo, Lolium multiflorum
Summary of the method: as §2

corn [12] = experiment: Test C postemergence; assay type: in vivo, Zea mays; conditions: 10 days, 0 to 100 scale (0 no effect, 100 complete control)
Summary of the method: as §2

oat, wild [13] = experiment: Test C postemergence; assay type: in vivo, Avena fatua; conditions: 10 days, 0 to 100 scale (0 no effect, 100 complete control)
Summary of the method: as §2

green foxtail [14] = experiment: Test C preemergence; assay type: in vivo, Setaria viridis
Summary of the method: as §2

soybean [15] = experiment: Test C preemergence; assay type: in vivo, Glycine max
Summary of the method: as §2

oat, wild [16] = experiment: Test C preemergence; assay type: in vivo, Avena fatua
Summary of the method: as §2

wheat [17] = experiment: Test C postemergence; assay type: in vivo, Triticum aestivum; conditions: 10 days, 0 to 100 scale (0 no effect, 100 complete control)
Summary of the method: as §2

pigweed, palmer [18] = experiment: Test C preemergence; assay type: in vivo, Amaranthus palmeri
Summary of the method: as §2

green foxtail [19] = experiment: Test C postemergence; assay type: in vivo, Setaria viridis; conditions: 10 days, 0 to 100 scale (0 no effect, 100 complete control)
Summary of the method: as §2

ragweed [20] = experiment: Test C postemergence; assay type: in vivo, Ambrosia artemisiifolia; conditions: 10 days, 0 to 100 scale (0 no effect, 100 complete control)
Summary of the method: as §2

horseweed = experiment: Test C postemergence; assay type: in vivo, Erigeron canadensis; conditions: 10 days, 0 to 100 scale (0 no effect, 100 complete control)
Summary of the method: as §2

kochia [21] = experiment: Test C postemergence; assay type: in vivo, Bassia scoparia; conditions: 10 days, 0 to 100 scale (0 no effect, 100 complete control)
Summary of the method: as §2

sedge, umbrella = experiment: Test D flooded paddy test; assay type: in vivo, Cyperus difformis; conditions: 250 g ai/ha, applied to paddy water, visual rating after 13 to 14 days, scale 0 to 100 (0 no effect, 100 complete control)
Summary of the method: as §1

blackgrass [22] = experiment: Test C postemergence; assay type: in vivo, Alopecurus myosuroides; conditions: 10 days, 0 to 100 scale (0 no effect, 100 complete control)
Summary of the method: as §2

barnyardgrass [23] = experiment: Test D flooded paddy test; assay type: in vivo, Echinochloa crus-galli; conditions: 250 g ai/ha, applied to paddy water, visual rating after 13 to 14 days, scale 0 to 100 (0 no effect, 100 complete control)
Summary of the method: as §1

[24] = 500 g ai/ha, preemergence, 0 to 100 scale (0 no effect, 100 complete control)
[25] = Preemergence, 125 g ai/ha, 0 to 100 scale, 0 no effect, 100 complete control

Cc1ncn(-c2ccc(F)c(C(=S)N3C[C@H](C)Oc4c(C)cccc43)c2)n1 [Compound 362]
30: Plant response rating, Pigweed, Palmer (pigweed, palmer [6]; Postemergence, 125 g ai/ha) | Plant response rating, Corn (corn [12]; Postemergence, 125 g ai/ha) | Plant response rating, Oat, Wild (oat, wild [13]; Postemergence, 125 g ai/ha)
0: Plant response rating, Oat, Wild (oat, wild [16]; [25]) | Plant response rating, Horseweed (horseweed; Postemergence, 125 g ai/ha)
25: Plant response rating, Rice (Flood) (rice)
60: Ragweed plant response rating (ragweed [5]; [24]) | Plant response rating, Barnyardgrass (barnyardgrass [7]; Postemergence, 125 g ai/ha) | Plant response rating, Oat, Wild (oat, wild [13]; 500 g ai/ha, postemergence) | Plant response rating, Wheat (wheat [17]; 500 g ai/ha, postemergence) | Plant response rating, Ragweed (ragweed [20]; 500 g ai/ha, postemergence)
35: Plant response rating, Barnyardgrass (Flood) (barnyardgrass [23])
80: Plant response rating, Ryegrass, Italian (ryegrass, Italian [1]; Postemergence, 125 g ai/ha) | Plant response rating, Barnyardgrass (barnyardgrass [2]; [25]) | Blackgrass plant response rating (blackgrass [3]; [24]) | Plant response rating, Pigweed, Palmer (pigweed, palmer [6]; 500 g ai/ha, postemergence) | Kochia plant response rating (kochia [10]; [24]) | Plant response rating, Ryegrass, Italian (ryegrass, Italian [11]; [25]) | Plant response rating, Kochia (kochia [21]; Postemergence, 125 g ai/ha)
50: Plant response rating, Ducksalad (Flood) (ducksalad) | Plant response rating, Blackgrass (blackgrass [3]; [25]) | Plant response rating, Soybean (soybean [15]; [25]) | Plant response rating, Ragweed (ragweed [20]; Postemergence, 125 g ai/ha)
70: Plant response rating, Kochia (kochia [10]; [25]) | Soybean plant response rating (soybean [15]; [24]) | Oat, Wild plant response rating (oat, wild [16]; [24]) | Plant response rating, Foxtail, Green (green foxtail [19]; Postemergence, 125 g ai/ha) | Plant response rating, Blackgrass (blackgrass [22]; Postemergence, 125 g ai/ha)
40: Wheat plant response rating (wheat [8]; [24]) | Plant response rating, Corn (corn [12]; 500 g ai/ha, postemergence) | Plant response rating, Wheat (wheat [17]; Postemergence, 125 g ai/ha)
20: Plant response rating, Ragweed (ragweed [5]; [25]) | Corn plant response rating (corn [9])
90: Plant response rating, Ryegrass, Italian (ryegrass, Italian [1]; 500 g ai/ha, postemergence) | Plant response rating, Barnyardgrass (barnyardgrass [7]; 500 g ai/ha, postemergence) | Ryegrass, Italian plant response rating (ryegrass, Italian [11]; [24]) | Plant response rating, Pigweed, Palmer (pigweed, palmer [18]; [25]) | Plant response rating, Foxtail, Green (green foxtail [19]; 500 g ai/ha, postemergence) | Plant response rating, Kochia (kochia [21]; 500 g ai/ha, postemergence) | Plant response rating, Blackgrass (blackgrass [22]; 500 g ai/ha, postemergence)
100: Barnyardgrass plant response rating (barnyardgrass [2]; [24]) | Plant response rating, Galium (galium; 500 g ai/ha, postemergence) | Plant response rating, Galium (galium; Postemergence, 125 g ai/ha) | Plant response rating, Soybean (soybean [4]; 500 g ai/ha, postemergence) | Plant response rating, Soybean (soybean [4]; Postemergence, 125 g ai/ha) | Foxtail, Green plant response rating (green foxtail [14]; [24]) | Plant response rating, Foxtail, Green (green foxtail [14]; [25]) | Pigweed, Palmer plant response rating (pigweed, palmer [18]; [24])
95: Plant response rating, Sedge, Umbrella (Flood) (sedge, umbrella)
10: Plant response rating, Wheat (wheat [8]; [25]) | Plant response rating, Horseweed (horseweed; 500 g ai/ha, postemergence)
